# Test results from ChEMBL document CHEMBL5465560, “Selectivity Literature for EUbOPEN Chemogenomic Library” (2024).
# Legend:
# [1] = target: Serine/threonine-protein kinase pim-3 (Homo sapiens) (UniProt Q86V86); test: Selectivity interaction (KinomeScan (DiscoverX)) EUB0000695a PIM3; settings: at 100 nM
# [2] = system: Mast/stem cell growth factor receptor Kit (Homo sapiens), P10721 [V559D]; test: (§1) Selectivity interaction (Kinase panel (Z-LYTE Assay)) EUB0001632a KIT; settings: at 10 µM
# [3] = system: Mast/stem cell growth factor receptor Kit (Homo sapiens), P10721 [V560G]; test: as §1; settings: at 10 µM
# [4] = system: Mast/stem cell growth factor receptor Kit (Homo sapiens), P10721 [V559D,V654A]; test: as §1; settings: at 10 µM
# [5] = system: Mast/stem cell growth factor receptor Kit (Homo sapiens), P10721 [T670I]; test: as §1; settings: at 10 µM
# [6] = target: Mast/stem cell growth factor receptor Kit (Homo sapiens, UniProt P10721); test: as §1; settings: at 10 µM
# [7] = target: T1, Serine/threonine-protein kinase 17A (Homo sapiens) (UniProt Q9UEE5); settings: at 10 µM
# T1 sequence (whole entry): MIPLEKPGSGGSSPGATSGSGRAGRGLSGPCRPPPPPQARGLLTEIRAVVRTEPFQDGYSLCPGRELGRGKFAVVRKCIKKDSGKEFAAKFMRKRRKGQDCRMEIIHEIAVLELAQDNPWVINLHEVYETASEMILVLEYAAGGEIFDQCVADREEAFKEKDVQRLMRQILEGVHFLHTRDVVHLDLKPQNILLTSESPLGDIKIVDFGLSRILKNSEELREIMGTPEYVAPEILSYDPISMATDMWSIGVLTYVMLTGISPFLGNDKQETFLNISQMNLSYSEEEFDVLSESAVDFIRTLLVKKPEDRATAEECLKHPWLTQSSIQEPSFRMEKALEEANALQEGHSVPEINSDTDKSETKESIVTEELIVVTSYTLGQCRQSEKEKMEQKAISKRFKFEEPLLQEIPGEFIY
# [8] = target: Phosphatidylinositol 4-kinase beta (Homo sapiens, UniProt Q9UBF8); test: Selectivity interaction (ActivX KiNativ screen (kinase selectivity in THP-1 cell lysates)) EUB0000639a PI4KB; assay type: subcellular; settings: lysate, at 1 µM
# [9] = target: T2, Inhibitor of nuclear factor kappa-B kinase subunit alpha (Homo sapiens) (UniProt O15111); test: Selectivity interaction (Kinase panel (Invitrogen)) EUB0000639a CHUK; settings: at 200 nM
# T2 sequence (whole entry): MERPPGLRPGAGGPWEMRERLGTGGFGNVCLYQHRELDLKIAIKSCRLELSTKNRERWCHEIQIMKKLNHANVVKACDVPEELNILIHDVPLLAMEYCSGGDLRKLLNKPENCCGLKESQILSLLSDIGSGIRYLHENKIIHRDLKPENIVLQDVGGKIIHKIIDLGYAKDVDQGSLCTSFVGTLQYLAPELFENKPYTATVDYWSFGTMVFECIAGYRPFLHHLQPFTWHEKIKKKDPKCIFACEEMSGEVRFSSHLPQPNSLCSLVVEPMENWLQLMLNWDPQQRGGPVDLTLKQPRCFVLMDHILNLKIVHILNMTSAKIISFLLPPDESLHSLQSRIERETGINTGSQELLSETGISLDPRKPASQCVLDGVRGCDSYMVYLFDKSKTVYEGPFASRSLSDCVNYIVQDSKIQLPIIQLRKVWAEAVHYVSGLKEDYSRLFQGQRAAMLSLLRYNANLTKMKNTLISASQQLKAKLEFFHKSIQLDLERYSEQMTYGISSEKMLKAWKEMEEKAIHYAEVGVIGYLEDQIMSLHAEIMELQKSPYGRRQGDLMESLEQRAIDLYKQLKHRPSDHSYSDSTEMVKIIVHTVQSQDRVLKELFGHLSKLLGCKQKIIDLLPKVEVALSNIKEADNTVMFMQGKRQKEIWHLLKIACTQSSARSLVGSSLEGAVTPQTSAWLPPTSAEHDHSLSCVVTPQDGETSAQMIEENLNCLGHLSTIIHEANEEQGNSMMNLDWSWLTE
# [10] = target: Cyclin-dependent kinase 8 (Homo sapiens, UniProt P49336); test: Selectivity interaction (ActivX KiNativ screen (kinase selectivity in THP-1 cell lysates)) EUB0000639a CDK8; assay type: subcellular; settings: lysate
# [11] = target: Cyclin-dependent kinase 3 (Homo sapiens) (UniProt Q00526); settings: at 10 µM
# [12] = target: T3, Serine/threonine-protein kinase DCLK3 (Homo sapiens) (UniProt Q9C098); test: Selectivity interaction (KinomeScan (DiscoverX)) EUB0000092b DCLK3; settings: at 10 µM
# T3 sequence (whole entry): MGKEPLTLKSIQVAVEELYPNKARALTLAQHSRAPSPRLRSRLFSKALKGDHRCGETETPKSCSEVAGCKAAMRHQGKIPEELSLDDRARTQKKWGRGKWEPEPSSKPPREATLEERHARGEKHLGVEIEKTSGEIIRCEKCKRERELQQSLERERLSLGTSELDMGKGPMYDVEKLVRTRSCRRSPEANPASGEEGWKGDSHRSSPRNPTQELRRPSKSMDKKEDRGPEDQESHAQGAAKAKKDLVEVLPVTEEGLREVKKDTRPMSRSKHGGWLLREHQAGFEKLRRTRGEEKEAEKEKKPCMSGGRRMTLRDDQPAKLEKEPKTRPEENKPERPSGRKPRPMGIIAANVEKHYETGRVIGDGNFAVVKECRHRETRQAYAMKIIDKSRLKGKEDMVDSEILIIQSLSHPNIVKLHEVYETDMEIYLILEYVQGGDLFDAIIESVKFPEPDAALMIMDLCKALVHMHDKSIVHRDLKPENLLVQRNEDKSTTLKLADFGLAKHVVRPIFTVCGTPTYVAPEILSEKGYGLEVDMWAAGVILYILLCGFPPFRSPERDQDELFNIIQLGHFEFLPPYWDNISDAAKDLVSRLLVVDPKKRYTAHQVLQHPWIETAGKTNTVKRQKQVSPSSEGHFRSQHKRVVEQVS
# Cyclin-dependent kinase 8, sequence (P49336 whole entry): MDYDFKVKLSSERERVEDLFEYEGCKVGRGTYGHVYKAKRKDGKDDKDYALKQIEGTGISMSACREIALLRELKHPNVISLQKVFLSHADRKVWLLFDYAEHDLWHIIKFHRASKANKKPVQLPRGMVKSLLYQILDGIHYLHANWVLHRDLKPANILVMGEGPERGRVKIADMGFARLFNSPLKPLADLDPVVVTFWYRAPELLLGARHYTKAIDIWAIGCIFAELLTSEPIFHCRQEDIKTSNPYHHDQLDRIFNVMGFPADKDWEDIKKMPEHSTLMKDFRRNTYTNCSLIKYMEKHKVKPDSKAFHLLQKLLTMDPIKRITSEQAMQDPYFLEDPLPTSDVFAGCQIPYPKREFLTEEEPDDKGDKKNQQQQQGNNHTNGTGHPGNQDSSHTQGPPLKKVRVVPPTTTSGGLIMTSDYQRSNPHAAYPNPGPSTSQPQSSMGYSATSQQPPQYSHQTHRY
# Cyclin-dependent kinase 3 (Homo sapiens), sequence (Q00526 whole entry, looked up): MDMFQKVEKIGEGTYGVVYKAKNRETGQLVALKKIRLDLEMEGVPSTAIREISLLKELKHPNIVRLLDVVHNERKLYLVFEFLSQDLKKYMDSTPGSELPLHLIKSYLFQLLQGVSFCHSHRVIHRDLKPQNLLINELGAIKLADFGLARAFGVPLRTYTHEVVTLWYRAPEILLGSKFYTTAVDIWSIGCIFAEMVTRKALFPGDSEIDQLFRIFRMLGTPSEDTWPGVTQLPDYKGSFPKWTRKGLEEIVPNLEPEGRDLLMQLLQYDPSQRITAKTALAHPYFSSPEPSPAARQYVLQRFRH
# Mast/stem cell growth factor receptor Kit, sequence (P10721 whole entry): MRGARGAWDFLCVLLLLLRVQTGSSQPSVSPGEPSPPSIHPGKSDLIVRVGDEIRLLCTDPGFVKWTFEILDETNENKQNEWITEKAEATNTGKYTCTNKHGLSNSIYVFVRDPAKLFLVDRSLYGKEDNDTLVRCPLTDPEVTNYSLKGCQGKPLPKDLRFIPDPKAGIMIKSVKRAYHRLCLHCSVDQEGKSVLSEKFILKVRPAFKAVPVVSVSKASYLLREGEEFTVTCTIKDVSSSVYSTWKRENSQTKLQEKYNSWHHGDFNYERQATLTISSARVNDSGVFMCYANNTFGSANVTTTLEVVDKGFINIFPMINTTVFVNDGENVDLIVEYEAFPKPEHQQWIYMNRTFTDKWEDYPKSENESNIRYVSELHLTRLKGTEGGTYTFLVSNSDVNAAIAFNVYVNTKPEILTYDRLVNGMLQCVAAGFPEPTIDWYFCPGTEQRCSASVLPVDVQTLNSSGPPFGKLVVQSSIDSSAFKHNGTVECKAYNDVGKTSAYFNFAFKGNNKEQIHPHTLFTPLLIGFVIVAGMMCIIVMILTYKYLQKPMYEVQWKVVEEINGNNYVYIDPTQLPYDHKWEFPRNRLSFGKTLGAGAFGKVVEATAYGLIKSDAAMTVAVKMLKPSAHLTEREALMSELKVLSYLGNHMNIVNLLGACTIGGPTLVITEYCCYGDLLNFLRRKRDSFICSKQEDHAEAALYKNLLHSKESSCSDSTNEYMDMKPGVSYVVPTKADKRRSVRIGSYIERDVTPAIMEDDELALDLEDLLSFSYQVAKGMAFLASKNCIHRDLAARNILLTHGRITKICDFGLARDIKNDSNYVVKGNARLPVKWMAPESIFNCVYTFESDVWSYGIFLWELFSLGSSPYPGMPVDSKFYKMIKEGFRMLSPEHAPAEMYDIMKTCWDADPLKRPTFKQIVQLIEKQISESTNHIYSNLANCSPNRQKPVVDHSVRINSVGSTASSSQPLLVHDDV
# Mast/stem cell growth factor receptor Kit (Homo sapiens), P10721 [V560G], sequence (P10721 whole entry V560G): as the sequence (P10721 whole entry) above, with V560G counted along it
# Mast/stem cell growth factor receptor Kit (Homo sapiens), P10721 [T670I], sequence (P10721 whole entry T670I): as the sequence (P10721 whole entry) above, with T670I counted along it
# Mast/stem cell growth factor receptor Kit (Homo sapiens), P10721 [V559D,V654A], sequence (P10721 whole entry V559D/V654A): as the sequence (P10721 whole entry) above, with V559D, V654A counted along it
# Mast/stem cell growth factor receptor Kit (Homo sapiens), P10721 [V559D], sequence (P10721 whole entry V559D): as the sequence (P10721 whole entry) above, with V559D counted along it
# Phosphatidylinositol 4-kinase beta, sequence (Q9UBF8 2-816 limits assumed): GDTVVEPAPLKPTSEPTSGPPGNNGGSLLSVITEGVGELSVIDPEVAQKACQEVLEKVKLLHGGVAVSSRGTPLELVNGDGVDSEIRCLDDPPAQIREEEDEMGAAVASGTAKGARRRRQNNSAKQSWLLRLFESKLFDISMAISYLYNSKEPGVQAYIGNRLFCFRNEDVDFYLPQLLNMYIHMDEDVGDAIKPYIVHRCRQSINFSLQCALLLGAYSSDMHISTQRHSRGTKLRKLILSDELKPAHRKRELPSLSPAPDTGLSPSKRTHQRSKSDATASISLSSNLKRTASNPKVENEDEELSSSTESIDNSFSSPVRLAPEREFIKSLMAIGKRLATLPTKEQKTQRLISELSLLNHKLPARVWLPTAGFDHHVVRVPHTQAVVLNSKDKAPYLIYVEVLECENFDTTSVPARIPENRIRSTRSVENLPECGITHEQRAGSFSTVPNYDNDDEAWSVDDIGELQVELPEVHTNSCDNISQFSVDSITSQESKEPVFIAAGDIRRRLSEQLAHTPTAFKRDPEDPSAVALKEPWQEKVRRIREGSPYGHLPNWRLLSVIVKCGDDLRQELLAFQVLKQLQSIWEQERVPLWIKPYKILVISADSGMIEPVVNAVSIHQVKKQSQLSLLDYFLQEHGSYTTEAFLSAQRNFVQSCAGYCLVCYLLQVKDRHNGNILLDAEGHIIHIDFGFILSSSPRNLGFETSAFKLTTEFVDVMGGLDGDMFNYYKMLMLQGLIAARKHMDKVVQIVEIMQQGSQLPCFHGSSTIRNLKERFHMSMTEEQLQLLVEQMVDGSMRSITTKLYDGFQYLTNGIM
smiles,measurement,setting,value
Cc1cc(F)c(C(=O)Nc2cccc(-c3nncn3C(C)C)n2)cc1-n1cnc(C2CC2)c1,% of control,[1],92%
Cn1cc(-n2cnc3c(NCc4nc5cc(Cl)c(Cl)cc5[nH]4)nc(N4CCOCC4)nc32)cn1,% of control,[2],6.85%
same,% of control,[3],1.94%
same,% of control,[4],0.874%
same,% of control,[5],0.683%
same,% of control,[6],7.07%
Cc1cc([C@@H](C)Nc2ccccc2C(=O)O)c2nc(N3CCOCC3)cc(=O)n2c1 [AZD-6482],% of control,[7],98%
CC[C@@H]1[C@H](F)C(=O)N[C@@H]1COc1nccc2cc(C(N)=O)c(OC)cc12 [ZIMLOVISERTIB],% of inhibition,[8],-19.1%
same,% of inhibition,[9],-5.38%
same,% of inhibition,[10]; at 0.01 µM,10.4%
same,% of inhibition,[10]; at 0.04 µM,-11.1%
same,% of inhibition,[10]; at 0.2 µM,2.6%
same,% of inhibition,[10]; at 1 µM,7.8%
same,% of inhibition,[10]; at 5 µM,18.7%
CCN(CC)CCCCNc1ncc2cc(-c3cc(OC)cc(OC)c3)c(NC(=O)NC(C)(C)C)nc2n1,% of control,[11],100%
CCC(=O)N1CCN(c2ccc(-n3c(=O)ccc4cnc5ccc(-c6cnc7ccccc7c6)cc5c43)cc2C(F)(F)F)CC1,% of control,[12],97%
